These are literature values, as cited in patent publication US5986061A (priority 1995, dated 1999).

The subject of data set [1] is vesicular stomatitis virus and bovine MDBK cells. The settings on record: literature (16, 28, 63); cited from earlier work.
Data set [2] concerns the target T1, Hu-IFN-α/β receptor on bovine MDBK cells (Bos taurus, UniProt Q04790+Q95141).
T1 construct: endogenous in cells; host or cells: MDBK
T1 sequence (Q04790 25-560): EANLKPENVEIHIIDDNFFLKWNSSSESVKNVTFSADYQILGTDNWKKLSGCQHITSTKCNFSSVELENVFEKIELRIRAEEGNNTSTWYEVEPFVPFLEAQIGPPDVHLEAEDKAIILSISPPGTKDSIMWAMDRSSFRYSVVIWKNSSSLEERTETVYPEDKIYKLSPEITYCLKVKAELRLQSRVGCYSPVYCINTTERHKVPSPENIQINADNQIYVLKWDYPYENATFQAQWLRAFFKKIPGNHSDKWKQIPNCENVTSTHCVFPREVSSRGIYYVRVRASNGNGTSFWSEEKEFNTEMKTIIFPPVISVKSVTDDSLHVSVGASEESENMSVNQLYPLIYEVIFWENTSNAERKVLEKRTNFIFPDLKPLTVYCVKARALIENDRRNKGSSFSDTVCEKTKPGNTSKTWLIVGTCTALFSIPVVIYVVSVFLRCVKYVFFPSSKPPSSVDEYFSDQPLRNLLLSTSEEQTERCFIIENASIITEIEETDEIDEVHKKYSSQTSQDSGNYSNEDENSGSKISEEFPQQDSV
T1 sequence (Q95141 27-530): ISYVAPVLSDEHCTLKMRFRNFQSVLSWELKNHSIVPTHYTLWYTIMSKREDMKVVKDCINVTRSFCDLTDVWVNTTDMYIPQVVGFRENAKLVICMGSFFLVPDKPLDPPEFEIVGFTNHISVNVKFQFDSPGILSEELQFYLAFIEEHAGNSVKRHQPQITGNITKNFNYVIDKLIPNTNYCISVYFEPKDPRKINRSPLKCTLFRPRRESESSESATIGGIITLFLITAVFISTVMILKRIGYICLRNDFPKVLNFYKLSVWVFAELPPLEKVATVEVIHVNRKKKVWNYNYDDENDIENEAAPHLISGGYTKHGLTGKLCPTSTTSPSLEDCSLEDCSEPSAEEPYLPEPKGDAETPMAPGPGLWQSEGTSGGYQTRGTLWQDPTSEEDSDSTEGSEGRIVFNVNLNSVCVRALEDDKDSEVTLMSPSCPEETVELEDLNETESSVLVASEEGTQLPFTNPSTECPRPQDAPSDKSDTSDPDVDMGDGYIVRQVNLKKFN
The settings on record: literature (16, 28, 63); cited from earlier work.

As to “Hu-IFN-gamma: human immune (gamma) interferon”, the “antiviral activity on MDBK cell line” value in data set [1] is “does not”.

B1: Hu-IFN-gamma: human immune (gamma) interferon (protein, UniProt P01579 24-161, looked up)
Interferon gamma: QDPYVKEAENLKKYFNAGHSDVADNGTLFLGILKNWKEESDRKIMQSQIVSFYFKLFKNFKDDQSIQKSVETIKEDMNVKFFNSNKKKRDDFEKLTNYSVTDLNVQRKAIHELIQVMAELSPAAKTGKRKRSQMLFRG
For the molecule B1, in data set [2], the “binding to MDBK cell line” value is recorded as “does not”.
